The subject of assay [1] is hTNFα-induced neutrophil recruitment. The assay is described as follows: Neutrophil recruitment in mice, compound pre-mixed with hTNFα and injected i.p. The format is in vivo, Balb/c mice. To be noted: for effect of compound alone on neutrophil recruitment: compound only mice, no TNFα; for neutrophil recruitment versus TNFα in the absence of the compound: sample 1, ratio compound:TNFα 0.1:1, i.p.; for neutrophil recruitment versus TNFα in the absence of the compound / inhibition of neutrophil recruitment: 2 h. On the procedure:
In separate studies, compounds of formula (1) and formula (2) were mixed with 20 μM solutions of TNFα dissolved in phosphate buffered saline (PBS) to a concentration of 2 μM, 20 μM and 200 μM. The ratio of each compound to TNFα was, therefore, 0.1:1 (sample 1), 1:1 (sample 2) and 10:1 (sample 3). […] This process separates protein bound compound and free compound. A control sample containing PBS only was processed in the same way to provide a vehicle control for the study. The concentration of eluted protein was determined using a Nanodrop (ND-1000). The TNFα:compound complexes were diluted in PBS to a concentration for injection of 0.03 μg/kg.
For the study, typically, each group contained 10 male Balb/c mice (Charles River) apart from an anti-human TNFα antibody positive control, which used a set of 5 mice.
Compound only mice were also included in the study to assess the effect of compound on neutrophil recruitment.
All mice were killed by cervical dislocation two hours post-injection of hTNFα (t=2 h) and the peritoneal cavity was lavaged with 3 mL of FACS buffer (500 mL PBS containing 2 g bovine serum albumin, 6 mL HEPES buffer and […]). Lavage fluid was aspirated and neutrophil numbers were assessed by staining cells with anti-Gr1 PE and anti-CD45 FITC by FACS as detailed below.
100 μL of lavage fluid from each sample was aliquoted into FACS tubes. A FACS cocktail was made up using anti-GR-1 PE (BD cat #553128 Lot #75542) at 1 in 39 dilution and anti-CD45 FITC (BD cat #553080 Lot #80807) at 1 in 19 dilution in FACS buffer. Fc block (BD Cat #553142 Lot #87810) was prepared 1 in 10 with FACS buffer and 10 μL added to each sample 5 minutes before adding the antibody cocktail. […] Samples were then left for 20 mins on ice. 1 mL of FACS Lyse solution (BD Cat #349202 Lot #29076, diluted 1:10 in dH2O) was added to each tube, mixed and left at room temperature for 5 minutes. 1 mL of FACS Buffer was then added to each tube and centrifuged at 400 g for 5 minutes. The FACS buffer was then carefully poured off and the tip of the tube dabbed on absorbent paper to leave the tube completely dry. Then […] of 1 in 10 Reference Bead solution (Sigma cat # P2477 Lot #116K1612) diluted in FACS buffer was added to each tube.
Samples were analysed using FACScalibur II and FloJo software.

For assay [2], the target named is TNFα (Homo sapiens, UniProt P01375). The assay is described as follows: L929 murine fibrosarcoma cell-killing (neutralisation) assay. The format is cell-based, mouse. To be noted: L929 cells; read-out: IC50 (inhibition of cell killing activity of human TNFα). The arrangement: host or cells: added to L929 murine fibrosarcoma cells (ECACC, 85011425). On the procedure: The L929 neutralisation assays were carried out using the protocol disclosed in Baarsch M J J et al (Immunol Methods 1991; 140: 15-22) and Galloway C J et al J (Immunol Methods 1991; 140: 37-43).
Briefly, L929 cells (ECACC, 85011425) were cultured in culture medium consisting of RPMI 1640 (Gibco) containing 10% FCS (PAA), 2 mM glutamine (Gibco), 50 U/ml penicillin (Gibco) and 50 μg/ml streptomycin (Gibco). When they were subcultured, the cells were washed three times with 10 mL Dulbecco's phosphate-buffered saline without calcium and magnesium (Gibco) and 3 ml of trypsin-EDTA (Gibco) was then added for 2 minutes to remove the cells from the flask. Culture medium was added to neutralise the trypsin and the cells pipetted up and down to remove any clumps.
The L929 cells were split 1/2 or 1/3 the day before use and cultured for a further 24 hours. The flasks were then trypsinised as above and 2×10^4 cells in 100 μl were added per well of a 96 well flat-bottomed plate (Becton Dickinson). The plates were cultured for 24 hours before the assay was set up.
Serial dilutions were made from DMSO stocks of the compounds.
The assay medium was the same as culture medium but also contained 1 μg/ml actinomycin D (Sigma). The medium was flicked off the plates and the assay samples plus TNFα, standards and controls were added in 100 μl volumes in duplicate. Plates were incubated for a further 16 hours and then 10 μl per well of a 5 mg/ml methylthiazoletetrazolium (MTT; Sigma) solution in culture medium was added for a further 4 hours. The reaction was stopped by the addition of 100 μl of solubilisation buffer containing 20% sodium dodecyl sulphate (SDS, BDH) dissolved in 50% dimethyl formamide (DMF; BDH) and 50% deionised water.
After overnight incubation at 37° C. to allow the dye to dissolve, the plates were read on a Multiskan EX plate reader (Labsystem) at 570 nm with subtraction at 630 nm. Data were analysed using the Genesis software package.

In assay [3] the target is TNFα binding to TNF receptor (ECD-TNFR) (Homo sapiens, UniProt P01375). The assay is described as follows: Biacore in-solution competition/enhancement assay, TNFα/compound mix over immobilised ECD-TNFR. To be noted: Biacore A100/4000, 0.5-1 nM TNFα, highest concentration 20 μM; read-out: EC50 (compound induced enhanced binding of TNFα to TNF receptor). On the procedure:
For this purpose a Biacore A100/4000 was used. […] For example a typical assay may use 20 μ[…] solution of compound. […] Control compounds were tested every 10-15 cycles. […] Background subtraction binding curves were analysed using the BIAevaluation software following standard procedures. The EC50 data was determined using a four parameter logistic fit. […] The RU (resonance unit) value for TNFα in the absence of compound was subtracted from the curves so these now show only the increase in binding induced by the compounds. The progress curves plateau at higher RU values as the concentration of compound increases.
In general terms: SPR reads the build-up and loss of mass on a sensor chip optically.

Turning to `Cc1ccc(C)c(Cn2c(C(O)c3ccncc3)nc3ccccc32)c1` (stereo not shown) [Compound (1), [1-(2,5-Dimethylbenzyl)-1H-benzimidazol-2-yl](pyridin-4-yl)methanol], the “effect of compound alone on neutrophil recruitment” value in assay [1] is “negligible effect”. The “neutrophil recruitment versus TNFα in the absence of the compound” value in assay [1] is listed as “not significantly different”. Besides, the “inhibition of neutrophil recruitment” value in assay [1] (sample 2, ratio compound:TNFα 1:1, i.p.) was determined as 86%; in assay [1] (sample 3, ratio compound:TNFα 10:1, i.p.) it was 85%. Moreover, the IC50 in assay [2] amounted to 306 nM. The EC50 in assay [3] came out at 298 nM.
On to `Cc1ccc(C)c(Cn2c(C(O)c3ccncc3)nc3ccc(-c4cnn(C)c4)cc32)c1` (stereo not shown) [Compound (2), [1-(2,5-Dimethylbenzyl)-6-(1-methyl-1H-pyrazol-4-yl)-1H-benzimidazol-2-yl](pyridin-4-yl)methanol], for which, in assay [1], the “effect of compound alone on neutrophil recruitment” value is reported as “negligible effect” and the “neutrophil recruitment versus TNFα in the absence of the compound” value is “not significantly different”. Further, the IC50 in assay [2] worked out at 125 nM. Moreover, the EC50 in assay [3] came to 280 nM.

As a reminder, the IC50 is the point on the concentration scale where inhibition reaches its midpoint. As usually defined, the EC50 is the concentration giving half of the maximal effect.

Values taken from patent publication US10705094B2, “TNF receptor signaling modulator assay” (UCB Biopharma SRL, priority 2015, dated 2020).
